Measured values: patent publication US20250270222A1, “AP2 ASSOCIATED KINASE 1 INHIBITORS AND USES THEREOF” (Satellos Bioscience Inc., priority 2023, published 2025)

Columns and labels:
Format in all cases: biochemical
[1] = biological target: GAK (amino acids Q25-N335) (Homo sapiens (Human), UniProt O14976); assay: GAK pSENs assay
[2] = biological target: AAK1 (amino acids T27-A365) (Homo sapiens (Human), UniProt Q2M2I8); assay: AAK1 pSENs assay; conditions: ratio of AAK1 pSENs activity to GAK pSENs activity
Chain of AAK1 (amino acids T27-A365) (Q2M2I8 27-365): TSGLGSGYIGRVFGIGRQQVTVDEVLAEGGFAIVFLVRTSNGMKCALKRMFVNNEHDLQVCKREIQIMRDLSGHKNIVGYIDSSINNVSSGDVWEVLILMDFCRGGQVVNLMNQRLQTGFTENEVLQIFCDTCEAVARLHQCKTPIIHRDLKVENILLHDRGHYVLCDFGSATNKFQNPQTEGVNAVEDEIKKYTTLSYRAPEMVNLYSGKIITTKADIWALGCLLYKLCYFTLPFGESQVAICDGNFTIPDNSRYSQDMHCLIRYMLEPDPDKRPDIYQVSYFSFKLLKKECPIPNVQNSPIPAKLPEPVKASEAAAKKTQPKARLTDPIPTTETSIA
How it was run: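 Untagged, biotinylated E. coli-expressed AAK1 at 20 nM preincubated with compound 15 min at 25° C in HEPES pH 7.5 buffer with 10 mM MgCl2 and 1 mM DTT. Reaction started with AQT0759 and ATP, added as 30 uM and 70 uM solutions in equal volume.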

[3] = biological target: BIKE (amino acids S38-E345) (K320A, K321A) (Homo sapiens (Human), UniProt Q9NSY1, K320A/K321A); assay: BIKE pSENs assay
Chain of BIKE (amino acids S38-E345) (K320A, K321A) (Q9NSY1 38-345 K320A/K321A): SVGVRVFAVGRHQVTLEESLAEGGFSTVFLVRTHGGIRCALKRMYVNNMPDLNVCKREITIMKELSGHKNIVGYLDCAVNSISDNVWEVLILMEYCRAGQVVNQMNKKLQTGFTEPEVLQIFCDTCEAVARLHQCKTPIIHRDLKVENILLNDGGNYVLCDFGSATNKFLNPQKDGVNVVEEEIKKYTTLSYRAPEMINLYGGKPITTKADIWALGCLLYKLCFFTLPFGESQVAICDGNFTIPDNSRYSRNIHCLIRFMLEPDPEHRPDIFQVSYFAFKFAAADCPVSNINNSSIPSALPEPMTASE
Procedure: The recombinant proteins were independently expressed in Esherichia coli BL21(DE3) cells cultured in Luria-Bertani (LB) medium until OD600 reached 0.6-0.8, then cooled to 15° C., and supplemented with 0.5 mM isopropyl 1-thio-D-galactopyranoside (IPTG) induce protein expression 16 h. Cells were harvested and resuspended in lysis buffer (50 mM HEPES pH 7.5, 500 mM NaCl, 5 mM imidazole, 5% glycerol, 0.5 mM Tris (2-carboxyethyl) phosphine (TCEP), cOmplete Protease Inhibitor Tablet (Roche)) and lysed by microfluidics high pressure homogenizer (UH-06, Union-Biotech). Proteins were purified using Ni-Affinity chromatography (His FF column, Bestchrom) and eluted stepwise in binding buffer with 20-300 mM imidazole. Removal of the hexahistidine tag was performed at 4° C. overnight using recombinant TEV protease and reacted with BirA to obtain the corresponding biotinylated-AAK1. BIKE or GAK proteins. Further separated in the reverse Strep column (Strep-Tactin® XT, IBA). The Biotin elution sample was collected containing untagged biotinylated protein was then purified by Ion-exchange chromatography (Mono Q 10/100 GL, Cytiva) and Size-exclusion chromatography (HiLoad 16/600 Superdex 200 pg, Cytiva). The pure protein was stored in a storage buffer 50 mM HEPES (pH 7.5), 300 mM NaCl, 5% glycerol at −80° C. Protein were characterized by SDS-PAGE. LC-MS and aSEC.
BIKE protein was dissolved at 20 nM in 1× enzyme solution (50 mM HEPES pH7.5, 10 mM MgCl2, 1 mM DTT, 1% glycerol, 0.5 mM EGTA, 0.01% Briji35, 0.02% BSA) and 12.5 ul was incubated with 250 nl DMSO or 250 nl compound in DMSO at 25° C. for 15 min. The reaction was started by addition of 12.5 ul of 30 uM AQT0759 (Assayquant, CSKS-AQT0759B) and 40 uM ATP which were diluted in 1× substrate dilution buffer (50 mM HEPES pH7.5, 10 mM MgCl2. 1 mM DTT, 1% glycerol, 0.5 mM EGTA, 0.01% Briji35).

Chain of GAK (amino acids Q25-N335) (O14976 25-335): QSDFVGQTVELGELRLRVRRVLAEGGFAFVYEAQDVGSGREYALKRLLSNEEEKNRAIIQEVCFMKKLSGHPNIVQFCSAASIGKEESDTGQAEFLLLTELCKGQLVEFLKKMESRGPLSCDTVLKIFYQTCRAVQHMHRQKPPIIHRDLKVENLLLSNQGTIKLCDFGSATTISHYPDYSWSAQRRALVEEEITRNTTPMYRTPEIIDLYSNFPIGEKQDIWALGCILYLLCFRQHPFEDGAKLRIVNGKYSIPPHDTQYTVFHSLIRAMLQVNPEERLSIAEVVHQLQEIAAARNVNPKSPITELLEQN

| SMILES | IC50 [1] [nM] | AAK1:GAK pSENs Selectivity [2] | IC50 [3] [nM] |
| --- | --- | --- | --- |
| CC(C)Nc1ncccc1-c1cnn2ccc(N3CCN(C(=O)O[C@@H]4CNC(=O)C4)CC3)nc12 [Compound I-47, [(3S)-5-oxopyrrolidin-3-yl]4-[3-[2-(isopropylamino)-3-pyridyl]pyrazolo[1,5-a]pyrimidin-5-yl]piperazine-1-carboxylate] | > 1500 | E (E: >1.00) | > 1500 |
| CN(C)CCN1CC[C@@](C)(OC(=O)N2CCN(c3ccn4ncc(-c5cccnc5OC5CC5)c4n3)CC2)C1 [Compound I-53, (R)-1-(2-(dimethylamino)ethyl)-3-(methylpyrrolidin-3-yl)-4-(3-(2-cyclopropoxypyridin-3-yl)pyrazolo[1,5-a]pyrimidin-5-yl)piperazine-1-carboxylate] | > 1500 | A (A: ≤0.015) | 501 to 1500 |
| O=C1C[C@H](OC(=O)N[C@@H]2CCN(c3ccn4ncc(-c5cccnc5OC5CC5)c4n3)C2)CN1 [Compound I-54, [(3S)-5-oxopyrrolidin-3-yl]N-[(3R)-1-[3-[2-(cyclopropoxy)-3-pyridyl]pyrazolo[1,5-a]pyrimidin-5-yl]pyrrolidin-3-yl]carbamate] | > 1500 | C (C: 0.076-0.15) | > 1500 |
| O=C(O[C@H]1CO[C@H]2OCC[C@H]21)N1CCN(c2ccn3ncc(-c4ccncn4)c3n2)CC1 [Compound I-67] | > 1500 | C (C: 0.076-0.15) | > 1500 |
| O=C(O[C@H]1CO[C@H]2OCC[C@H]21)N1CCN(c2ccn3ncc(-c4ccccc4OC4CC4)c3n2)CC1 [Compound I-68, [(3aS,4R,6aR)-2,3,3a, 4,5,6a-hexahydrofuro[2,3-b]furan-4-yl]4-[3-[2-(cyclopropoxy)phenyl]pyrazolo[1,5-a]pyrimidin-5-yl]piperazine-1-carboxylate] | > 1500 | A (A: ≤0.015) | > 1500 |
| COC(=O)N1CC(Oc2ncccc2-c2cnn3ccc(N4CCN(C(=O)O[C@@H]5CC(=O)N(C6COC6)C5)CC4)nc23)C1 [Compound I-85, [(3R)-1-(oxetan-3-yl)-5-oxo-pyrrolidin-3-yl]-4-[3-[2-(1-methoxycarbonylazetidin-3-yl)oxy-3-pyridyl]pyrazolo[1,5-a]pyrimidin-5-yl]piperazine-1-carboxylate] | > 1500 | C (C: 0.076-0.15) | > 1500 |
| Cc1nn2ccc(N3CCN(C(=O)O[C@H]4CC(=O)N(C)C4)CC3)nc2c1-c1cccnc1OC1CC1 [Compound I-108, [(3S)-1-methyl-5-oxo-pyrrolidin-3-yl]-4-[3-[2-(cyclopropoxy)-3-pyridyl]-2-methyl-pyrazolo[1,5-a]pyrimidin-5-yl]piperazine-1-carboxylate] | > 1500 | E (E: >1.00) | > 1500 |
| CN1C[C@@H](OC(=O)N2CCN(c3nc4c(-c5cccnc5OC5CC5)cnn4cc3O)CC2)CC1=O [Compound I-110, [(3S)-1-methyl-5-oxo-pyrrolidin-3-yl]-4-[3-[2-(cyclopropoxy)-3-pyridyl]-6-hydroxy-pyrazolo[1,5-a]pyrimidin-5-yl]piperazine-1-carboxylate] | > 1500 | E (E: >1.00) | > 1500 |
| COc1cn2ncc(-c3cccnc3OC3CC3)c2nc1N1CCN(C(=O)O[C@H]2CC(=O)N(C)C2)CC1 [Compound I-110-9, [(3S)-1-methyl-5-oxo-pyrrolidin-3-yl]-4-[3-[2-(cyclopropoxy)-3-pyridyl]-6-methoxy-pyrazolo[1,5-a]pyrimidin-5-yl]piperazine-1-carboxylate] | > 1500 | E (E: >1.00) | > 1500 |
| Cc1cn2ncc(-c3cccnc3OC3CC3)c2nc1N1CCN(C(=O)O[C@H]2CC(=O)N(C)C2)CC1 [Compound I-111, [(3S)-1-methyl-5-oxo-pyrrolidin-3-yl]-4-[3-[2-(cyclopropoxy)-3-pyridyl]-6-methyl-pyrazolo[1,5-a]pyrimidin-5-yl]piperazine-1-carboxylate] | > 1500 | C (C: 0.076-0.15) | > 1500 |

More lines, now with the values ahead:

| IC50 [1] [nM] | AAK1:GAK pSENs Selectivity [2] | IC50 [3] [nM] | SMILES |
| --- | --- | --- | --- |
| > 1500 | D (D: 0.16-1.00) | > 1500 | O=C1C[C@H](OC(=O)N2CCN(c3ccn4ncc(-c5cccnc5OC5CC5)c4n3)C[C@H]2C(=O)O)CN1 [Compound I-41-4C, (S)-4-(3-(2-Cyclopropoxypyridin-3-yl)pyrazolo[1,5-a]pyrimidin-5-yl)-1-((((S)-5-oxopyrrolidin-3-yl)oxy)carbonyl)piperazine-2-carboxylic acid] |
| > 1500 | C (C: 0.076-0.15) | > 1500 | COC(=O)[C@@H]1CN(c2ccn3ncc(-c4cccnc4OC4CC4)c3n2)CCN1C(=O)O[C@@H]1CNC(=O)C1 [Compound I-41-5, 2-Methyl 1-((S)-5-oxopyrrolidin-3-yl) (S)-4-(3-(2-cyclopropoxypyridin-3-yl)pyrazolo[1,5-a]pyrimidin-5-yl)piperazine-1,2-dicarboxylate] |
| > 1500 | B (B: 0.016-0.075) | > 1500 | NC(=O)[C@@H]1CN(c2ccn3ncc(-c4cccnc4OC4CC4)c3n2)CCN1C(=O)O[C@@H]1CNC(=O)C1 [Compound I-41-6, (S)-5-Oxopyrrolidin-3-yl-(S)-2-carbamoyl-4-(3-(2-cyclopropoxypyridin-3-yl)pyrazolo[1,5-a]pyrimidin-5-yl)piperazine-1-carboxylate] |
| > 1500 | D (D: 0.16-1.00) | > 1500 | CN1CC(Oc2ncccc2-c2cnn3ccc(N4CCN(C(=O)O[C@@H]5CNC(=O)C5)CC4)nc23)C1 [Compound I-44, (S)-5-Oxopyrrolidin-3-yl 4-(3-(2-((1-methylazetidin-3-yl)oxy)pyridin-3-yl)pyrazolo[1,5-a]pyrimidin-5-yl)piperazine-1-carboxylate] |
| > 1500 | D (D: 0.16-1.00) | > 1500 | CC(C)(C)OC(=O)N1CC(Nc2ncccc2-c2cnn3ccc(N4CCN(C(=O)O[C@@H]5CNC(=O)C5)CC4)nc23)C1 [Compound I-48] |
| > 1500 | D (D: 0.16-1.00) | > 1500 | O=C1C[C@H](OC(=O)N[C@H]2CCN(c3ccn4ncc(-c5cccnc5OC5CC5)c4n3)C2)CN1 [Compound I-55, (S)-5-oxopyrrolidin-3-yl ((S)-1-(3-(2-cyclopropoxypyridin-3-yl)pyrazolo[1,5-a]pyrimidin-5-yl)pyrrolidin-3-yl)carbamate] |
| > 1500 | C (C: 0.076-0.15) | > 1500 | C[C@@]1(OC(=O)N[C@@H]2CCN(c3ccn4ncc(-c5cccnc5OC5CC5)c4n3)C2)CCNC1 [Compound I-56, (R)-3-methylpyrrolidin-3-yl ((R)-1-(3-(2-cyclopropoxypyridin-3-yl)pyrazolo[1,5-a]pyrimidin-5-yl)pyrrolidin-3-yl)carbamate] |
| > 1500 | B (B: 0.016-0.075) | > 1500 | COC(=O)N1CC(Oc2ncccc2-c2cnn3ccc(N4CCN(C(=O)O[C@@H]5CC(=O)N(CCOCc6ccccc6)C5)CC4)nc23)C1 [Compound I-84-6, [(3R)-1-(2-benzyloxyethyl)-5-oxo-pyrrolidin-3-yl]-4-[3-[2-(1-methoxycarbonyl-azetidin-3-yl)oxy-3-pyridyl]pyrazolo[1,5-a]pyrimidin-5-yl]piperazine-1-carboxylate] |
